Compound: CN(C)C/C=C/C(=O)Nc1ccc(C(=O)N2CCC[C@@H](Nc3ncc(Cl)c(-c4c[nH]c5ccccc45)n3)C2)cc1 [THZ531]
Test: increase in dead-cell fraction, 72 h; higher = more death;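 further: breast cancer cell lines in 384-well plates, stained with Hoechst plus LIVE/DEAD far red dye and imaged, cells above an LDR intensity threshold counted dead, Hoechst-negative corpses included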
Settings: 0.0001 µM

Row | Cell Line | increase in dead-cell fraction
1 | MDAMB453 | 0.0012
2 | MDAMB468 | -0.0128
3 | MGH312 | -0.0016
4 | PDX1258 | 0.0134
5 | PDX1328 | -0.0004

Same assay, conditions: 0.0003162 µM

Row | Cell Line | increase in dead-cell fraction
6 | MDAMB453 | 0.0037
7 | MDAMB468 | 0.0007
8 | MGH312 | 0.006
9 | PDX1258 | -0.0091
10 | PDX1328 | -0.0097

Same assay, conditions: 0.001 µM

Row | Cell Line | increase in dead-cell fraction
11 | MDAMB453 | 0.0069
12 | MDAMB468 | -0.006
13 | MGH312 | 0.0097
14 | PDX1258 | -0.0052
15 | PDX1328 | 0.0015

Same assay, conditions: 0.003162 µM

Row | Cell Line | increase in dead-cell fraction
16 | MDAMB453 | 0.0027
17 | MDAMB468 | 0.0023
18 | MGH312 | 0.002
19 | PDX1258 | -0.0071
20 | PDX1328 | 0

Same assay, conditions: 0.01 µM

Row | Cell Line | increase in dead-cell fraction
21 | MDAMB453 | 0.0057
22 | MDAMB468 | 0.0064
23 | MGH312 | -0.0045
24 | PDX1258 | -0.0127
25 | PDX1328 | 0.003

Same assay, conditions: 0.03162 µM

Row | Cell Line | increase in dead-cell fraction
26 | MDAMB453 | 0.0394
27 | MDAMB468 | 0.0382
28 | MGH312 | 0.0455
29 | PDX1258 | 0.0327
30 | PDX1328 | -0.0033

Same assay, conditions: 0.1 µM

Row | Cell Line | increase in dead-cell fraction
31 | MDAMB453 | 0.16
32 | MDAMB468 | 0.104
33 | MGH312 | 0.662
34 | PDX1258 | 0.239
35 | PDX1328 | 0.0477

Same assay, conditions: 0.3162 µM

Row | Cell Line | increase in dead-cell fraction
36 | MDAMB453 | 0.187
37 | MDAMB468 | 0.168
38 | MGH312 | 0.72
39 | PDX1258 | 0.246
40 | PDX1328 | 0.199

Same assay, conditions: 1 µM

Row | Cell Line | increase in dead-cell fraction
41 | MDAMB453 | 0.157
42 | MDAMB468 | 0.141
43 | MGH312 | 0.639
44 | PDX1258 | 0.27
45 | PDX1328 | 0.186

Compound: CCOc1cc2ncc(C#N)c(Nc3ccc(OCc4ccccn4)c(Cl)c3)c2cc1NC(=O)/C=C/CN(C)C [Neratinib/HKI272]
Test: as above
Settings: 0.0003162 µM

Row | Cell Line | increase in dead-cell fraction
46 | MDAMB453 | 0.0316
47 | MDAMB468 | 0.0075
48 | MGH312 | -0.0056
49 | PDX1258 | 0.0046
50 | PDX1328 | 0.0026

Same assay, conditions: 0.001 µM

Row | Cell Line | increase in dead-cell fraction
51 | MDAMB453 | 0.0419
52 | MDAMB468 | 0.0021
53 | MGH312 | -0.0054
54 | PDX1258 | 0.0126
55 | PDX1328 | 0.0005

Same assay, conditions: 0.003162 µM

Row | Cell Line | increase in dead-cell fraction
56 | MDAMB453 | 0.0613
57 | MDAMB468 | 0.0111
58 | MGH312 | -0.0078
59 | PDX1258 | 0.0014
60 | PDX1328 | 0.002

Same assay, conditions: 0.01 µM

Row | Cell Line | increase in dead-cell fraction
61 | MDAMB453 | 0.0661
62 | MDAMB468 | 0.0196
63 | MGH312 | 0.0126
64 | PDX1258 | -0.0047
65 | PDX1328 | -0.0007

Same assay, conditions: 0.03162 µM

Row | Cell Line | increase in dead-cell fraction
66 | MDAMB453 | 0.119
67 | MDAMB468 | 0.0337
68 | MGH312 | 0.0263
69 | PDX1258 | 0.0084
70 | PDX1328 | 0.0044

Same assay, conditions: 0.1 µM

Row | Cell Line | increase in dead-cell fraction
71 | MDAMB453 | 0.106
72 | MDAMB468 | 0.0953
73 | MGH312 | 0.0191
74 | PDX1258 | 0.0159
75 | PDX1328 | 0.0093

Same assay, conditions: 0.3162 µM

Row | Cell Line | increase in dead-cell fraction
76 | MDAMB453 | 0.177
77 | MDAMB468 | 0.205
78 | MGH312 | 0.0224
79 | PDX1258 | 0.0244
80 | PDX1328 | 0.0044

Same assay, conditions: 1 µM

Row | Cell Line | increase in dead-cell fraction
81 | MDAMB453 | 0.212
82 | MDAMB468 | 0.381
83 | MGH312 | 0.0395
84 | PDX1258 | 0.0372
85 | PDX1328 | 0.0158

Same assay, conditions: 3.162 µM

Row | Cell Line | increase in dead-cell fraction
86 | MDAMB453 | 0.348
87 | MDAMB468 | 0.6
88 | MGH312 | 0.0962
89 | PDX1258 | 0.118
90 | PDX1328 | 0.0733

Compound: CCc1cnn2c(NCc3ccc[n+]([O-])c3)cc(N3CCCC[C@H]3CCO)nc12
Test: as above
Settings: 0.0001 µM

Row | Cell Line | increase in dead-cell fraction
91 | MDAMB453 | 0.0187
92 | MDAMB468 | 0.0037
93 | MGH312 | 0.0027
94 | PDX1258 | -0.0003
95 | PDX1328 | -0.0005

Same assay, conditions: 0.0003162 µM

Row | Cell Line | increase in dead-cell fraction
96 | MDAMB453 | -0.0038
97 | MDAMB468 | -0.0009
98 | MGH312 | 0.0051
99 | PDX1258 | -0.0056
100 | PDX1328 | 0.0028

Same assay, conditions: 0.001 µM

Row | Cell Line | increase in dead-cell fraction
101 | MDAMB453 | -0.0082
102 | MDAMB468 | -0.0038
103 | MGH312 | -0.0065
104 | PDX1258 | -0.0037
105 | PDX1328 | -0.0033

Same assay, conditions: 0.003162 µM

Row | Cell Line | increase in dead-cell fraction
106 | MDAMB453 | -0.004
107 | MDAMB468 | 0.0016
108 | MGH312 | -0.0023
109 | PDX1258 | 0.0067
110 | PDX1328 | -0.0053

Same assay, conditions: 0.01 µM

Row | Cell Line | increase in dead-cell fraction
111 | MDAMB453 | 0.0474
112 | MDAMB468 | 0.0237
113 | MGH312 | 0.0052
114 | PDX1258 | 0.0568
115 | PDX1328 | -0.0021

Same assay, conditions: 0.03162 µM

Row | Cell Line | increase in dead-cell fraction
116 | MDAMB453 | 0.251
117 | MDAMB468 | 0.245
118 | MGH312 | 0.481
119 | PDX1258 | 0.537
120 | PDX1328 | 0.113

Same assay, conditions: 0.1 µM

Row | Cell Line | increase in dead-cell fraction
121 | MDAMB453 | 0.309
122 | MDAMB468 | 0.396
123 | MGH312 | 0.649
124 | PDX1258 | 0.662
125 | PDX1328 | 0.187

Same assay, conditions: 0.3162 µM

Row | Cell Line | increase in dead-cell fraction
126 | MDAMB453 | 0.286
127 | MDAMB468 | 0.462
128 | MGH312 | 0.713
129 | PDX1258 | 0.643
130 | PDX1328 | 0.19

Same assay, conditions: 1 µM

Row | Cell Line | increase in dead-cell fraction
131 | MDAMB453 | 0.318
132 | MDAMB468 | 0.494
133 | MGH312 | 0.67
134 | PDX1258 | 0.658
135 | PDX1328 | 0.213

Source: the supplement of paper PMC9663587
